We go through two compounds from patent US20230218716A1, “COMPOSITIONS AND METHODS FOR TREATING ATRIAL FIBRILLATION” (Ohio State Innovation Foudation, priority 2020, published 2023).

Counter-ions that a name gives are not always drawn.

The conditions of series [1]: cited from earlier work.
In series [2] the test system is Langendorff-perfused mouse hearts. As to conditions: VEGF 500 pg/ml, perfused 60 minutes; vehicle 100±9%; n=3 hearts/group. On the procedure: (§1) Langendorff preparations: For optical mapping and ex vivo electrocardiography (ECG) studies, hearts were perfused (at 40-55 mm Hg) in a Langendorff configuration with oxygenated, modified Tyrode's solution (containing, in mM: NaCl 140, KCl 5.4, MgCl2 0.5, dextrose 5.6, HEPES 10; pH adjusted to 7.4) at 37° C. as previously described (Veeraraghavan R, et al. Pflugers Arch. 2015 467:2093-2105; Veeraraghavan R, et al. Elife. 2018 7; Radwanski P B, et al. Cardiovascular research. 2015 106:143-52; Radwanski P B, et al. Heart rhythm. 2010 7:1428-35; Veeraraghavan R and Poelzing S. Cardiovascular research. 2008 77:749-56.

The test system is the same in series [3]. As to the method: as §1
Optical Mapping and Volume-conducted Electrocardiography (ECG): Optical voltage mapping was performed using the voltage sensitive dye, di-4-ANEPPS (15 μM; ThermoFisher Scientific, Grand Island, N.Y.), as previously described (Veeraraghavan R, et al. Pflugers Arch. 2015 467:2093-2105; Veeraraghavan R, et al. Pflugers Arch. 2016 468:1651-61; Veeraraghavan R and Poelzing S. Cardiovascular research. 2008 77:749-56), in order to quantify conduction velocity. Motion was suppressed by adding blebbistatin (10 μM) to the perfusate. Preparations were excited by 510 nm light and fluorescent signals passed through a 610 nm longpass filter (Newport, Irvine, Calif.) and recorded at 1000 frames/sec using a MiCAM Ultima-L CMOS camera (SciMedia, Costa Mesa, Calif.). Activation time was defined as the time of the maximum first derivative of the AP (Girouard S D, et al. J Cardiovasc Electrophysiol. 1996 7:1024-38), and activation times were fitted to a parabolic surface (Bayly P V, et al. IEEE Trans Biomed Eng. 1998 45:563-71). Gradient vectors evaluated along this surface were averaged along the fast axis of propagation (±15°) to quantify CV.

A further series concerns mice. To be noted: intraperitoneal VEGF 10 or 50 ng/kg; epinephrine 1.5 mg/kg and caffeine 120 mg/kg. On the procedure:
In vivo ECG: Continuous ECG recordings (PL3504 PowerLab 4/35, ADInstruments) were obtained from mice anesthetized with isoflurane (1-1.5%) as previously described (Koleske M, et al. The Journal of general physiology. 2018). Briefly, after baseline recording (5 min.), animals received either intraperitoneal VEGF (10 or 50 ng/kg; Sigma) or vehicle (PBS). After an additional 20 min, animals were injected intraperitoneally with epinephrine (1.5 mg/kg; Sigma) and caffeine (120 mg/kg; Sigma) challenge and ECG recording continued for 40 minutes. ECG recordings were analyzed using the LabChart 8 software (ADInstruments).

The test system of the next series is mouse hearts. To be noted: VEGF high dose (500 pg/ml) vs. untreated controls. An excerpt: Primary Antibodies: The following primary antibodies were used for Western immunoblotting and fluorescence microscopy studies: connexin43 (Cx43; rabbit polyclonal; Sigma C6219); connexin40 (Cx40; rabbit polyclonal; ThermoFisher Scientific 36-4900); N-cadherin (N-cad; mouse monoclonal; BD Biosciences 610920); cardiac isoform of the voltage-gated sodium channel (Nav1.5; rabbit polyclonal; custom antibody (Veeraraghavan R, et al. Elife. 2018 7)); and the sodium channel β subunit (β1; rabbit polyclonal; custom antibody (Veeraraghavan R, et al. Elife. 2018 7))
Western Immunoblotting: Whole cell lysates of mouse hearts frozen using liquid nitrogen were prepared as previously described (Veeraraghavan R, et al. Elife. 2018 7; Koleske M, et al. The Journal of general physiology. 2018; Struckman H L, et al. Microsc Microanal. 2020:1-9). These were electrophoresed on 4-15% TGX Stain-free gels (BioRad, Hercules, Calif.) before being transferred onto a nitrocellulose membrane. The membranes were probed with primary antibodies against Cx43, Cx40, Nav1.5 and […] as well as mouse monoclonal antibody against GAPDH (loading control; Fitzgerald Industries, Acton, Mass.), followed by goat anti-rabbit and goat anti-mouse HRP-conjugated secondary antibodies (Promega, Madison, Wis.). Signals were detected by chemiluminescence using SuperSignal West Femto Extended Duration Substrate (ThermoFisher Scientific, Grand Island, N.Y.) and imaged using a Chemidoc MP imager (BioRad, Hercules, Calif.).

For series [4], the system named is murine atria. As to the method: Fixation for Transmission Electron Microscopy (TEM): Atria were dissected and fixed overnight in 2% glutaraldehyde at 4° C. for resin embedding and ultramicrotomy as previously described (Veeraraghavan R, et al. Pflugers Arch. 2015 467:2093-2105; Veeraraghavan R, et al. Elife. 2018 7).
Transmission Electron Microscopy (TEM): TEM images of the ID, particularly gap junctions (GJs) and mechanical junctions (MJs), were obtained at 60,000× magnification on a FEI Tecnai G2 Spirit electron microscope. Intermembrane distance at various ID sites was quantified using ImageJ (NIH), as previously described (Veeraraghavan R, et al. Pflugers Arch. 2015 467:2093-2105; Veeraraghavan R, et al. Elife. 2018 7).

Series [5] relates to murine atria. To be noted: VEGF-treated vs. control. An excerpt:
(§2) Cryopreservation: Hearts were embedded in optimal cutting temperature compound and frozen using liquid nitrogen for cryosectioning and fluorescent immunolabeling as in previous studies (Veeraraghavan R, et al. Pflugers Arch. 2015 467:2093-2105; Veeraraghavan R, et al. Pflugers Arch. 2016 468:1651-61; Veeraraghavan R, et al. Elife. 2018 7; Veeraraghavan R and Gourdie R. Molecular biology of the cell. 2016 27:3583-3590). These samples were used for light microscopy experiments as described below.
(§3) Fluorescent Immunolabeling: Immuno-fluorescent labeling of cryosections (5 μm thickness) of fresh-frozen myocardium was performed, as previously described (Veeraraghavan R, et al. Pflugers Arch. 2015 467:2093-2105; Veeraraghavan R, et al. Elife. 2018 7; Koleske M, et al. The Journal of general physiology. 2018; Radwanski P B, et al. JACC: Basic to Translational Science. 2016 1:251-266). Briefly, cryosections were fixed with paraformaldehyde (2%, 5 minutes at room temperature), permeabilized with Triton X-100 (0.2% in PBS for 15 minutes at room temperature) and treated with blocking agent (1% BSA, 0.1% triton in PBS for 2 hours at room temperature) prior to labeling with primary antibodies (overnight at 4° C.). Samples were then washed in PBS (3×5 minutes in PBS at room temperature) prior to labeling with secondary antibodies.
For confocal microscopy, samples were then labeled with goat anti-mouse and goat anti-rabbit secondary antibodies conjugated to Alexa 405, Alexa 488, Alexa 568 and Alexa 647 were used (1:8000; ThermoFisher Scientific, Grand Island, N.Y.). Simultaneous labeling with two rabbit or mouse primary antibodies was accomplished by direct fluorophore conjugation of primary antibodies (Zenon labeling kits, ThermoFisher Scientific, Grand Island, N.Y.). Samples were then washed in PBS (3×5 minutes in PBS at room temperature) and mounted in ProLong Gold (Invitrogen, Rockford, Ill.). For STimulated Emission Depletion (STED) microscopy, samples were prepared similar to confocal microscopy but labeled with Alexa 594 and Atto 647N fluorophores. […]

Series [6] deals with murine atria.
Excerpt: as §2, §3
For confocal microscopy, samples were then labeled with goat anti-mouse and goat anti-rabbit secondary antibodies conjugated to Alexa 405, Alexa 488, Alexa 568 and Alexa 647 were used (1:8000; ThermoFisher Scientific, Grand Island, N.Y.). Simultaneous labeling with two rabbit or mouse primary antibodies was accomplished by direct fluorophore conjugation of primary antibodies (Zenon labeling kits, ThermoFisher Scientific, Grand Island, N.Y.). Samples were then washed in PBS (3×5 minutes in PBS at room temperature) and mounted in ProLong Gold (Invitrogen, Rockford, Ill.). For STimulated Emission Depletion (STED) microscopy, samples were prepared similar to confocal microscopy but labeled with Alexa 594 and Atto 647N fluorophores. For STochastic Optical Reconstruction Microscopy (STORM), samples were labeled with Alexa 647 and Biotium CF 568 fluorophores. STORM samples were then washed in PBS (3×5 minutes in PBS at room temperature) and optically cleared using Scale U2 buffer (48 hours at 4° C.) prior to imaging (Veeraraghavan R, et al. Pflugers Arch. 2016 468:1651-61; Veeraraghavan R, et al. Elife. 2018 7; Veeraraghavan R and Gourdie R. Molecular biology of the cell. 2016 27:3583-3590).
Single Molecule Localization: STORM imaging was performed using a Vutara 352 microscope (Bruker Nano Surfaces, Middleton, Wis.) equipped with biplane 3D detection, and fast sCMOS imaging achieving 20 nm lateral and 50 nm axial resolution, as previously described (Veeraraghavan R, et al. Elife. 2018 7; Veeraraghavan R and Gourdie R. Molecular biology of the cell. 2016 27:3583-3590; Struckman H L, et al. Microsc Microanal. 2020:1-9; Bonilla I M, et al. Sci Rep. 2019 9:10179). Individual fluorophore molecules were localized with a precision of 10 nm. The two-color channels were precisely registered using localized positions of several TetraSpeck Fluorescent Microspheres (ThermoFisher Scientific, Carlsbad, Calif.) scattered throughout the field of view, with the procedure being repeated at the start of each imaging session. Protein clustering and spatial organization were quantitatively assessed from single molecule localization data using STORM-RLA, a machine learning-based cluster analysis approach, as previously described (Veeraraghavan R and Gourdie R. Molecular biology of the cell. 2016 27:3583-3590).
The source holds these as a separate data set.

[7] abbreviates: both low (100 pg/ml) and high (500 pg/ml) doses vs. untreated controls.

Regarding `O[C@H](c1cc(C(F)(F)F)nc2c(C(F)(F)F)cccc12)[C@@H]1CCCCN1` (relative stereo) [Mefloquine hydrochloride, (R*,S*)-(±)-alpha-2-piperidinyl-2,8-bis(trifluoromethyl)-4-quinolinemethanol], the Solubility in ethanol entry in series [1] (ethanol) is “soluble”. Further, in series [1] (water), the Solubility in water result is “slightly soluble”.
In the case of VEGF, in series [2], the “Levels of FITC-dextran extravasated relative to vehicle controls” value is reported as 201±7%. Further, in series [3] (30 minutes of VEGF perfusion (100 and 500 pg/ml) vs. untreated control), the P wave duration result is listed as “significant P-wave prolongation”. Also, in series [3] (VEGF 100 and 500 pg/ml, 30 minutes, 10 s burst pacing at 50, 40, 30 ms), the “Incidence of burst pacing-induced atrial arrhythmias” value is given as “increased the incidence of burst pacing-induced atrial arrhythmias in dose-dependent fashion”. Further, the Atrial conduction velocity result in series [3] (VEGF 100 and 500 pg/ml, 30 minutes, paced at cycle length 100 ms) is “significantly and dose-dependently decreased”. Besides, in the series with mice, the “Atrial arrhythmias in vivo after caffeine and epinephrine challenge” value is on record as “elicited atrial arrhythmias in VEGF-treated mice but not in untreated controls”. Besides, in the series with mouse hearts, the “Expression level of Cx43” value is “no significant difference”, the “Expression level of N-cad” value is “no significant difference”, the “Expression level of Nav1.5” value is on record as “no significant difference” and the “Expression level of β1” value was “no significant difference”. Further, in the series on mouse hearts, the “Expression of Cx40” value was “slightly elevated”. For the same compound, in the series with murine atria [4] (setting [7]), the “Intermembrane distance at GJ-adjacent sites” value is “significantly increased” and the “Intermembrane distance at MJ-adjacent sites” value is given as “significantly increased”. Also, the “Dose dependence of ID swelling” value in the series with murine atria [4] (low vs. high dose of VEGF) is listed as “dose-dependent fashion at GJ-adjacent perinexi but not near MJ”. In addition, in the series on murine atria [5] (<100 nm from Cx43), the “Nav1.5 enrichment ratio near Cx43 (STED)” value is “significantly decreased” and the “β1 enrichment ratio near Cx43 (STED)” value is “significantly decreased”. The “Nav1.5 enrichment ratio at N-cad-rich sites (STED)” value in the series on murine atria [5] is reported as “trended towards a decrease”. In the series with murine atria [6] (VEGF treated hearts vs. control), the “β1 density at N-cad-rich plicate ID sites” value is “without significant changes”. For the same compound, the “Nav1.5 enrichment ratio at N-cad-rich plicate ID sites” value with murine atria [6] (VEGF treated hearts, control 6.5±0.4) amounted to 4.6±0.4. The “Nav1.5 enrichment ratio at Cx43-adjacent perinexal sites” value in the series on murine atria [6] (VEGF treated hearts, control 10.5±0.3) came to 6.9±0.8. In the series with murine atria [6] (VEGF treated hearts, control 10.7±1.9), the “β1 enrichment ratio at Cx43-adjacent perinexal sites” value is 5.4±0.7. Moreover, the “% of ID-localized Nav1.5 signal at N-cad-rich plicate ID sites” value with murine atria [6] (VEGF treated hearts, control 35±2%) is given as 26±3%. Besides, the “% of ID-localized Nav1.5 signal at Cx43-adjacent perinexal sites” value with murine atria [6] (VEGF treated hearts, control 59±2%) is 32±3%. For the same compound, the “% of ID-localized β1 signal at Cx43-adjacent perinexal sites” value with murine atria [6] (VEGF treated hearts, control 69±4%) is given as 49±3%.
